Data as given in patent US20080004290A1, “Anti-Cancer Agents” (THE UNIVERSITY OF QUEENSLAND, priority 2003, published 2008).
Read-outs that look alike come from different tables or passages of the source.

What was measured:
[1] = tested on: NFF, neonatal foreskin fibroblasts; test: Cell survival assay (clonogenic survival, SRB), normal cells; assay type: cell-based, human; details: SRB
Protocol: (§1) The cytotoxicities of the compounds of the invention were determined by clonogenic survival of human cancer cells (MM96L, melanoma) and human normal cells (NFF, neonatal foreskin fibroblasts). Cells were incubated with the compounds at various concentrations of compound (0.01-10 μg/mL) for 24 hours, washed, and then grown for a further four days in the absence of hydroxamic acid before determining cell survival by cell count. The final readout involved staining with sulforhodamine B (SRB), a cost-effective method amenable to automation and high throughput analysis. At the technical level, “cell sensitivity” is often inferred from short term (1-2 day) observations such as apoptosis, which may not be a satisfactory model of clonogenic survival.
(§2) Cell Lines and Culture Medium. All cell lines used in this study have been described previously (Parsons et al., 1986; Todaro et al., 1980; Glenn et al., 2004). All cell lines were cultured in 10% heat-inactivated foetal calf serum (CSL, Australia) in RPMI 1640 medium supplemented with 100 U/mL penicillin, 100 μg/mL streptomycin, and 3 mM HEPES at 5% CO2, 99% humidity at 37° C. Primary human fibroblasts were obtained from neonatal foreskins and cultured in the above medium. Routine mycoplasma tests were performed using Hoechst stain^i and were always negative.
(§3) Cell Survival Assay. Cells were plated into 96-well microtitre plates at 5×10^3 cells/well, and allowed to adhere overnight. Test compounds were added to culture medium at the indicated concentrations, and plates incubated in the above conditions for 24 hours. Following this incubation period, compounds and media were removed, and replaced with fresh culture medium. Cells were then grown for a further 72 hours before assay using sulforhodamine B (SRB; Sigma, St. Louis, Mo.) as previously described. Briefly, the culture medium was removed from the 96-well microtitre plates and the plates washed twice with phosphate buffered saline (PBS), before the cells were fixed with methylated spirits for 15 minutes. The plates were then rinsed with tap water and the fixed cells stained with 50 μL/well of SRB solution (0.4% sulforhodamine B (w/v) in 1% (v/v) acetic acid) over a period of 1 hour. The SRB solution was then removed from the wells and the plates rapidly washed two times with 1% (v/v) acetic acid. Protein bound dye was then solubilised with the addition of 100 μL of 10 mM unbuffered Tris, and incubated for 15 min at 25° C. Plates were then read at 564 nm on a VERSA max tunable microplate reader (Molecular Devices, Sunnyvale, Calif.).

MM96L melanoma cells = test: Cell survival assay (clonogenic survival, SRB); assay type: cell-based, human; details: for SI (Selectivity Index = IC50 (NFF)/IC50 (MM96L)): NFF vs MM96L
Protocol: as §1, §2, §3

[2] = Homo sapiens, Fibroblast, 24 h, Table 6, 24 hours with compound, further growth, read-out: IC50 (μM) NFF
[3] = Homo sapiens, MM96L, 24 h, Table 6, 24 hours with compound, further growth, SRB, read-out: IC50 (μM) MM96L
[4] = Table 6, IC50 (NFF)/IC50 (MM96L)
[5] = Table 8, 24 hours with compound, further growth, read-out: IC50 (μM) NFF
[6] = Table 8, 24 hours with compound, further growth, SRB, read-out: IC50 (μM) MM96
[7] = Table 8, IC50 (NFF)/IC50 (MM96L)
[8] = Table 5, 24 hours with compound, further growth, read-out: IC50 NFF
[9] = Table 5, 24 hours with compound, further growth, SRB, read-out: IC50 MM96L
[10] = Table 5, Selectivity Index = IC50 (NFF)/IC50 (MM96L)
[11] = NFF normal fibroblasts, 24 h with compound, further 72 h growth, read-out: IC50 (uM) NFF
[12] = Homo sapiens, MM96L, most preferred compounds, exemplary examples, read-out: potency of IC50 against the MM96 melanoma cells
[13] = MM96L melanoma, 24 h with compound, further 72 h growth, SRB, read-out: IC50 (uM) MM96L
[14] = Homo sapiens, Fibroblast, NFF normal fibroblasts, 24 h with compound, further 72 h growth, read-out: IC50 (uM) NFF
[15] = Homo sapiens, MM96L, MM96L melanoma, 24 h with compound, further 72 h growth, SRB, read-out: IC50 (uM) MM96L

CN(C)c1ccc(C(=O)N[C@@H](CSCCCC(=O)NO)C(=O)NCC2CCCCC2)cc1 [Example 88]
IC50 [1, 2]: 3.6 ± 0.2 µM | IC50 (MM96L melanoma cells; [3]): 0.51 ± 0.09 µM | Selectivity (MM96L melanoma cells; [4]): 7.1

CN(C)c1ccc(C(=O)N[C@@H](CSCCCC(=O)NO)C(=O)NCc2ccc(C(=O)NCCc3ccc(O)cc3)cc2)cc1 [Example 110]
IC50 [1, 5]: 16.1 µM | IC50 (MM96L melanoma cells; [6]): 2.98 µM | Selectivity (MM96L melanoma cells; [7]): 5.4

CN(C)c1ccc(C(=O)N[C@@H](CSCCCC(=O)NO)C(=O)Nc2cccc3cc4ccccc4cc23)cc1 [Example 71]
IC50 [1, 2]: 2.2 ± 0.3 µM | IC50 (MM96L melanoma cells; [3]): 1.7 ± 0.3 µM | Selectivity (MM96L melanoma cells; [4]): 1.3

O=C(CCCSC[C@H](NC(=O)c1cccc2ccccc12)C(=O)NCc1ccccc1)NO [Example 37]
IC50 [1, 8]: 5.3 ± 0.6 µM | IC50 (MM96L melanoma cells; [9]): 6.3 ± 0.6 µM | Selectivity (MM96L melanoma cells; [10]): 0.8

O=C(/C=C/c1ccccc1)N[C@@H](CCCCCC(=O)NO)C(=O)NCc1ccccc1 [Example 137]
IC50 [1, 11]: 4.01 µM | IC50 (MM96L melanoma cells; [12]): ≤ 0.5 µM | IC50 (MM96L melanoma cells; [13]): 0.46 µM | SI (Selectivity Index = IC50 (NFF)/IC50 (MM96L)) (MM96L melanoma cells): 8.7

O=C(CCCSC[C@H](NC(=O)c1ccccc1C(=O)c1ccccc1)C(=O)NCc1ccccc1)NO [Example 27]
IC50 [1, 8]: 30 ± 1 µM | IC50 (MM96L melanoma cells; [9]): 24 ± 3 µM | Selectivity (MM96L melanoma cells; [10]): 1.3

O=C(/C=C/c1ccccc1)N[C@@H](CSCCCC(=O)NO)C(=O)NCc1ccncc1 [Example 100]
IC50 ([1]; Homo sapiens, Fibroblast, 24 h, Table 7, 24 hours with compound, further growth, read-out: IC50 (μM) NFF): 1.6 ± 0.2 µM | IC50 (MM96L melanoma cells; Homo sapiens, MM96L, 24 h, Table 7, 24 hours with compound, further growth, SRB, read-out: IC50 (μM) MM96L): 0.34 ± 0.02 µM | IC50 (MM96L melanoma cells; [12]): ≤ 0.5 µM | Selectivity (MM96L melanoma cells; Table 7, IC50 (NFF)/IC50 (MM96L)): 4.8

CN(C)c1ccc(C(=O)N[C@@H](CSCCCC(=O)NO)C(=O)NCc2ccc(C(=O)Nc3ccncc3)cc2)cc1 [Example 107]
IC50 [1, 5]: 16.9 µM | IC50 (MM96L melanoma cells; [6]): 2.96 µM | Selectivity (MM96L melanoma cells; [7]): 5.7

Cc1cc(C)cc(C(=O)N[C@@H](CSCCCC(=O)NO)C(=O)NCc2ccccc2)c1 [Example 26]
IC50 [1, 8]: 10.9 ± 0.9 µM | IC50 (MM96L melanoma cells; [9]): 2 ± 0.4 µM | Selectivity (MM96L melanoma cells; [10]): 5.5

CN(C)c1ccc(C(=O)N[C@@H](CSCCCC(=O)NO)C(=O)NC2CCCC2)cc1 [Example 89]
IC50 [1, 2]: 2.6 ± 0.3 µM | IC50 (MM96L melanoma cells; [3]): 1.5 ± 0.1 µM | Selectivity (MM96L melanoma cells; [4]): 1.7

CN(C)c1ccc(NC(=O)[C@H](CCCCCC(=O)NO)NC(=O)/C=C/c2ccccc2)cc1 [Example 150]
IC50 [1, 14]: 0.24 µM | IC50 (MM96L melanoma cells; [15]): 0.165 µM | SI (Selectivity Index = IC50 (NFF)/IC50 (MM96L)) (MM96L melanoma cells): 1.5

CC(C)=CC(=O)N[C@@H](CSCCCC(=O)NO)C(=O)NCc1ccccc1 [Example 53]
IC50 [1, 8]: 22 ± 1 µM | IC50 (MM96L melanoma cells; [9]): 11 ± 1 µM | Selectivity (MM96L melanoma cells; [10]): 2.0

O=C(CCCSC[C@H](NC(=O)C(c1ccccc1)c1ccccc1)C(=O)NCc1ccccc1)NO [Example 43]
IC50 [1, 8]: 22 ± 2 µM | IC50 (MM96L melanoma cells; [9]): 9.3 ± 0.3 µM | Selectivity (MM96L melanoma cells; [10]): 2.4

O=C(CCCCCC(NC(=O)OCc1ccccc1)C(=O)NC1CCCc2ccccc21)NO (stereo not drawn) [Example 156]
IC50 [1, 11]: 1.71 µM | IC50 (MM96L melanoma cells; [13]): 1.71 µM | SI (Selectivity Index = IC50 (NFF)/IC50 (MM96L)) (MM96L melanoma cells): 1

O=C(CCCCC[C@H](NC(=O)c1ccco1)C(=O)NCc1ccccc1)NO (racemic) [Example 133]
IC50 [1, 14]: 4.6 ± 0.4 µM | IC50 (MM96L melanoma cells; [15]): 0.2 ± 0.1 µM | IC50 (MM96L melanoma cells; [12]): ≤ 0.5 µM | SI (Selectivity Index = IC50 (NFF)/IC50 (MM96L)) (MM96L melanoma cells): 23

COc1cc(OC)cc(C(=O)N[C@@H](CSCCCC(=O)NO)C(=O)NCc2ccccc2)c1 [Example 30]
IC50 [1, 8]: 4.5 ± 0.6 µM | IC50 (MM96L melanoma cells; [9]): 1.7 ± 0.3 µM | Selectivity (MM96L melanoma cells; [10]): 2.6

O=C(CCCSC[C@H](NC(=O)C1CCCC1)C(=O)NCc1ccccc1)NO [Example 54]
IC50 [1, 8]: > 100 µM | IC50 (MM96L melanoma cells; [9]): 21 ± 3 µM | Selectivity (MM96L melanoma cells; [10]): >5

O=C(CCCSC[C@H](NC(=O)Cc1cccc([N+](=O)[O-])c1)C(=O)NCc1ccccc1)NO [Example 41]
IC50 [1, 8]: > 100 µM | IC50 (MM96L melanoma cells; [9]): 12 ± 1 µM | Selectivity (MM96L melanoma cells; [10]): >8

CN(C)c1ccc(C(=O)N[C@@H](CSCCCC(=O)NO)C(=O)N[C@H](c2ccccc2)[C@@H](O)c2ccccc2)cc1 [Example 76]
IC50 ([1]; Table 6, 24 hours with compound, further growth, read-out: IC50 (μM) NFF): 9 ± 3 µM | IC50 (MM96L melanoma cells; Table 6, 24 hours with compound, further growth, SRB, read-out: IC50 (μM) MM96L): 2.1 ± 0.2 µM | Selectivity (MM96L melanoma cells; [4]): 4.3
